Test results as given in US20090035292A1, “Use of phosphatases to treat neuroblastomas and medulloblastomas” (priority 2007, published 2009).
Entries after “also recorded” stand apart in the source; their conditions may differ. Read-outs that look alike come from different tables or passages of the source.

Key:
[1] = system: medulloblastoma cell line, DAOY; assay: Proliferation of medulloblastoma cell line DAOY in vitro; assay type: cell-based, human
Description: FIG. 4. […] The medulloblastoma cell line, DAOY, was exposed to 20 μM Compound 100 (squares), 5 μM Compound 100 (triangles), 1 μM Compound 100 (x's) or vehicle only (diamonds) for 3 days.
FIG. 5. […] The medulloblastoma cell line, DAOY, was exposed to 50 μM ATRA (squares), 20 μM ATRA (triangles), 5 μM ATRA (X's) or vehicle only (diamonds) for 3 days.
FIG. 6. […] The medulloblastoma cell line, DAOY, was exposed to 2 mM valproic acid (squares), 1 mM valproic acid (triangles), 0.5 mM valproic acid (X's) or vehicle only (diamonds) for 3 days.
The human medulloblastoma cell line DAOY is available from the American Type Culture Collection (ATCC), P.O. Box 1549, Manassas, Va., 20108, as ATCC No. HTB-186.
The medulloblastoma cell line, DAOY, was exposed to the cantharidin analog, Compound 100 at concentrations of 1 μM, 5 μM and 20 μM and evaluated for cellular proliferation over the course of three days. […] Therefore, Compound 100 even at low concentration is capable of preventing cellular proliferation.
To confirm these observations, cultured DAOY cells were treated with 50 μM, 20 μM, 5 μM or vehicle only for three days and examined for cellular proliferation. […] Consequently, because it has been determined that proliferation of medulloblastoma cells is inhibited by Compound 100, ATRA and valproic acid as single agent, it is reasonable to expect that the combination of compound 100 with each of these compounds or a regimen of all three agents may be effective in the treatment of medulloblastoma.
The medulloblastoma cell line, DAOY, was exposed to the HDAC inhibitor, Compound 205 at 10 μM, ATRA at 50 μM, and the compound 205 at 10 μM combined with ATRA at 50 μM, and evaluated for cellular proliferation over the course of seven days. […] (FIG. 8) Therefore, we have shown that Compound 205 is active against medulloblastoma cell line DAOY.

[2] = system: neuroblastoma cell line, SH-SY5Y; assay: Proliferation of neuroblastoma cell line SH-SY5Y in vitro; assay type: cell-based, human
Description: FIG. 1. […] The neuroblastoma cell line, SH-SY5Y, was exposed to Compound 100 for 4 or 7 days at concentrations of 1 μM (squares), 5 μM (triangles), 10 μM (short dashed line), 20 μM (diamonds), 50 μM (long dashed line) or vehicle only (circles).
FIG. 2. […] The neuroblastoma cell line, SH-SY5Y, was exposed to 5 μM Compound 100 (squares), 25 μM ATRA (circles), the combination of 5 μM Compound 100 and 25 μM ATRA (dashed line) or vehicle only (black line) for 4 or 7 days. […]
The human neuroblastoma cell line SH-SY5Y is available from the European Collection of Cell Cultures, Health Protection Agency, Porton Down SP40JG Salisbury, Wiltshire UK, as ECACC No. 94030304.
The neuroblastoma cell line, SHSY5Y, was exposed to the cantharidin analog Compound 100 for 4 or 7 days at concentrations of 1, 5, 10, 20 and 50 μM.
Subsequently, SH-SY5Y cells were exposed to Compound 100 at a concentration of 5 μM, ATRA at 25 μM or the combination of the two drugs at the aforementioned doses for 4 or 7 days. […]

[3] = system: medulloblastoma cell line DAOY xenograft tumors; assay: DAOY xenograft tumors in SCID mice; assay type: in vivo; settings: 1.5 mg/kg daily intraperitoneally for 21 days, measured at days 7, 14 and 21 of treatment, vs vehicle (FIG. 7)
Description: DAOY cells (5 million) were implanted subcutaneously in the flank of SCID mice (Day 0). After the xenografts reached a size of ˜130 cubic mm, treatment was instituted with vehicle alone (control), compound 100 (1.5 mg/kg), or compound 102 (1.5 mg/kg) daily intraperitoneally for 21 days (beginning at day 7). Xenograft masses were measured at days 7, 14 and 21 of treatment.

[4] = system: human glioblastoma multiforme; settings: cited from earlier work
[5] = system: neuroblastoma cell line SHSY xenograft; assay: SHSY xenograft in SCID mice; assay type: in vivo; settings: measured day 7 and day 14, vs vehicle (FIG. 9)
Description: (§1) SHSY cells (5 million) were implanted subcutaneously in the flank of SCID mice. After the xenografts reached a size of ˜100 cubic mm, treatment was instituted with vehicle alone (control), compound 100 (1.5 mg/kg) or compound 205 (10 mg/kg) daily intraperitoneally for 14 days. Xenograft masses were measured day 7 and day 14 of treatment.
as §1, with “Compound” for “compound”

[6] = system: medulloblastoma cell line, DAOY; settings: cited from earlier work
[7] = system: neuroblastoma; settings: given for 6 months to high risk patients after chemotherapeutic, surgical and radiation treatments (Matthay et al., 1999); cited from earlier work
[8] = system: neuroblastoma cell line, SH-SY5Y; settings: cited from earlier work
[9] = compound 205 at 10 μM combined with ATRA at 50 μM, seven days (FIG. 8)

CN1CCN(C(=O)C2C(C(=O)O)[C@H]3CC[C@@H]2O3)CC1 (stereo partly shown) [Compound 100]
rate of cellular proliferation ([1]; 20 μM Compound 100, three days (FIG. 4, squares)): greatest decrease in cellular proliferation | rate of cellular proliferation ([1]; Compound 100 at 1 μM, 5 μM and 20 μM, three days, vs vehicle (FIG. 4)): inhibits proliferation of medulloblastoma cells; also recorded: decreased rates of cellular proliferation as compared to the control | inhibition of cellular proliferation ([2]; 5 μM Compound 100 alone, 4 or 7 days (FIG. 2)): failed to significantly inhibit cellular proliferation | proliferation inhibition ([2]; 10 μM ATRA and 10 μM Compound 100 (FIG. 3)): exhibited high levels of proliferation inhibition | proliferation ([2]; 10 μM Compound 100 alone (FIG. 3)): proliferation was greatly reduced | synergy in combinations ([2]; 10 μM Compound 100 with 10 μM ATRA, 2.5 mM valproic acid or both (FIG. 3)): synergistically enhanced the activity of ATRA, valproic acid and valproic acid in combination with ATRA | proliferation inhibition ([2]; 2.5 mM valproic acid and 10 μM Compound 100 (FIG. 3)): exhibited high levels of proliferation inhibition | proliferation inhibition ([2]; 2.5 mM valproic acid, 10 μM ATRA and 10 μM Compound 100 (FIG. 3)): severely inhibits proliferation of neuroblastoma cells; also recorded: exhibited high levels of proliferation inhibition | inhibition of cell proliferation ([2]; Compound 100 at 1 μM and 5 μM, day 4, vs vehicle (FIG. 1)): little or no inhibition of cell proliferation | cell growth ([2]; Compound 100 at 1 μM and 5 μM, day 7, vs vehicle (FIG. 1)): enhanced cell growth | inhibition of proliferation ([2]; Compound 100 at 1, 5, 10, 20, 50 μM for 4 or 7 days (FIG. 1 legend)): inhibits proliferation of neuroblastoma cells | growth inhibition ([2]; Compound 100 at doses less than 50 μM, day 7 (FIG. 1)): escape of growth inhibition | cellular proliferation ([2]; Compound 100 at low doses): slightly stimulates cellular proliferation | inhibition of cell proliferation ([2]; Compound 100 at the three higher doses (10, 20, 50 μM), day 4 (FIG. 1)): Dose dependent inhibition | inhibition of cellular proliferation ([2]; combination of 5 μM Compound 100 and 25 μM ATRA, day 4 and day 7 (FIG. 2)): inhibits proliferation of neuroblastoma cells | inhibition of cellular proliferation ([2]; combination of 5 μM Compound 100 and 25 μM ATRA, day 4 and day 7 (FIG. 2), listed as compound 100): potentiated the extent of inhibition by ATRA | proliferation of xenograft (xenograft mass) [3]: inhibits the proliferation of the medulloblastoma cell line DAOY xenograft tumors; also recorded: inhibit the proliferation of DAOY cells | inhibition of human cancer cells in vitro ([4]; Compound 100 in combination with trichostatin A (PCT/US2007/003095)): better then would be expected from the combination of the agents alone | inhibition of human cancer cells in vitro ([4]; Compound 100 in combination with valproic acid (PCT/US2007/003095)): better then would be expected from the combination of the agents alone | cellular proliferation ([4]; combination of ATRA with Compound 100, human glioblastoma multiforme (PCT/US2007/003095)): highly effective in preventing cellular proliferation | proliferation of xenograft (xenograft mass) ([5]; Compound 100 1.5 mg/kg daily intraperitoneally for 14 days, 1.5 mg/kg): inhibits the proliferation of the neuroblastoma cell line SHSY xenograft

CCCC(CCC)C(=O)O [valproic acid, reference compound]
inhibition of proliferation ([1]; valproic acid at 2 mM, 1 mM or 0.5 mM, three days (FIG. 6)): inhibits proliferation of medulloblastoma cells; also recorded: inhibition of proliferation | proliferation ([2]; 2.5 mM valproic acid alone (FIG. 3)): proliferation was greatly reduced | inhibition of proliferation ([2]; 2.5 mM valproic acid and 10 μM ATRA (FIG. 3)): exhibited inhibition of proliferation | cell proliferation ([6]; 0.6 mmol/L valproic acid, 21 days (Li, et al., 2005)): suppressed cell proliferation | cell proliferation ([6]; 1 mmol/L valproic acid, 10 days (Li, et al., 2005)): suppressed cell proliferation

O=C(CCCCCNC(=O)c1ccccc1S)Nc1cccnc1 [Compound 205]
rate of cellular proliferation ([1]; Compound 205 at 10 μM alone, seven days, vs vehicle (FIG. 8)): decreased rates of cellular proliferation as compared to the control; also recorded: inhibits proliferation of the medulloblastoma cell line DAOY | rate of cellular proliferation [1, 9]: inhibits proliferation of the medulloblastoma cell line DAOY | synergy in combination [1, 9]: synergistically active | rate of cellular proliferation ([1]; compound 205 at 10 μM combined with ATRA at 50 μM, seven days (FIG. 8), listed as compound 205): marked decrease in the rate of cellular proliferation | proliferation of xenograft (xenograft mass) ([5]; Compound 205 10 mg/kg daily intraperitoneally for 14 days, 10 mg/kg): inhibits the proliferation of the neuroblastoma cell line SHSY xenograft

CC(C)(C)OC(=O)N1CCN(C(=O)C2C(C(=O)O)[C@H]3CC[C@@H]2O3)CC1 (stereo partly shown) [Compound 102]
proliferation of xenograft (xenograft mass) [3]: inhibits the proliferation of the medulloblastoma cell line DAOY xenograft tumors; also recorded: inhibit the proliferation of DAOY cells

CC1=C(/C=C/C(C)=C/C=C/C(C)=C\C(=O)O)C(C)(C)CCC1 [13-cis-retinoic acid]
survival [7]: survival is improved significantly

CC1=C(/C=C/C(C)=C/C=C/C(C)=C/C(=O)O)C(C)(C)CCC1 [ATRA, all-trans retinoic acid, reference compound]
cellular proliferation ([8]; long-term treatment with ATRA, demonstrated previously): can inhibit cellular proliferation | cellular migration and invasion ([8]; short term treatment (1-3 days) with ATRA (Joshi et al 2006)): induced cellular migration and invasion | rate of cellular proliferation ([1]; ATRA at 50 μM alone, seven days, vs vehicle (FIG. 8)): decreased rates of cellular proliferation as compared to the control | inhibition of cellular proliferation ([1]; ATRA at 50 μM, 20 μM, 5 μM, three days (FIG. 5)): inhibits proliferation of medulloblastoma cells; also recorded: inhibited proliferation to varying degrees | proliferation ([2]; 10 μM ATRA alone, day 4 (FIG. 3)): did not prevent proliferation | inhibition of cellular proliferation ([2]; 25 μM ATRA alone, 4 or 7 days (FIG. 2)): did not impair cellular proliferation until after day 4 | cellular proliferation ([6]; varying concentration of ATRA (Chang et al., 2007; Gumireddy et al., 2003)): inhibits cellular proliferation
